Measurements published in the NIST ThermoML archive (doi:10.1016/j.tca.2015.12.007).
Several values for one entry are separate records, joined by “and”; a condition that tells them apart may be missing. Identical values can stand only once. Numbers after ± are expanded uncertainties.

Tests used:
[1] = Crystal, Calculated from knudsen effusion weight loss
[2] = molar enthalpy of vaporization or sublimation; conditions: 298.15 K; Crystal; Static calorimetry

CC(C)C1C(=O)NC(=O)NC1=O [5-isopropylbarbituric acid]
[1]
Conditions | vapor or sublimation pressure
369.16 K | 0.000115 ± 2e-05 kPa and 0.000107 ± 2e-05 kPa and 0.000106 ± 2e-05 kPa
371.12 K | 0.000138 ± 2.1e-05 kPa and 0.000135 ± 2.1e-05 kPa
373.08 K | 0.000167 ± 2.1e-05 kPa and 0.000169 ± 2.1e-05 kPa and 0.000166 ± 2.1e-05 kPa
375.16 K | 0.000204 ± 2.1e-05 kPa and 0.000202 ± 2.1e-05 kPa and 0.000216 ± 2.1e-05 kPa
377.12 K | 0.000254 ± 2.2e-05 kPa and 0.000251 ± 2.2e-05 kPa and 0.000257 ± 2.2e-05 kPa
379.09 K | 0.000314 ± 2.3e-05 kPa and 0.000311 ± 2.3e-05 kPa and 0.000303 ± 2.3e-05 kPa
381.16 K | 0.000371 ± 2.4e-05 kPa and 0.00037 ± 2.4e-05 kPa and 0.000389 ± 2.4e-05 kPa
383.11 K | 0.000461 ± 2.6e-05 kPa and 0.000453 ± 2.6e-05 kPa and 0.000465 ± 2.6e-05 kPa
385.09 K | 0.000559 ± 2.8e-05 kPa and 0.000555 ± 2.8e-05 kPa and 0.000554 ± 2.8e-05 kPa
387.15 K | 0.000674 ± 3.1e-05 kPa and 0.000675 ± 3.1e-05 kPa and 0.000708 ± 3.2e-05 kPa
389.13 K | 0.000839 ± 3.6e-05 kPa and 0.000843 ± 3.6e-05 kPa and 0.000844 ± 3.6e-05 kPa
391.11 K | 0.000998 ± 4.1e-05 kPa and 0.001017 ± 7.9e-05 kPa and 0.001009 ± 7.8e-05 kPa

Conditions | molar enthalpy [kJ/mol]
[2] | 125 ± 3.8
